# Data as given in PMC12649549, “Sequence Permutation Generated Lysine and Tryptophan-Rich Antimicrobial Peptides with Enhanced Therapeutic Index” (Antibiotics, 2025).
# Like-named read-outs stand apart in the source and are kept apart here.
# How the values were obtained:
# [1] = system: Escherichia coli (ATCC 25922)
# Procedure: (§1) The antibacterial and salt-resistant activity of the peptides was tested using Escherichia coli (ATCC 25922), Pseudomonas aeruginosa Migula (ATCC 27853), Acinetobacter sp. (BCRC number 14B0091, BCRC number 14B0097, and BCRC number 14B0100), and Staphylococcus aureus sp. strains (ATCC 25923, ATCC 33591, ATCC 33592, ATCC 33593, and ATCC 6538). All bacteria were obtained from the Food Industry Research and Development Institute (Hsinchu, Taiwan) and cultured in sterilized Müller-Hinton (MH) broth at 37 °C and 200 rpm for 8 h. The inoculum concentrations were determined by measuring the optical density at 600 nm (OD 600 = 1, approximately 10^8 CFU/mL) using an Ultrospec 2100 pro UV-Visible spectrophotometer (Biochrom Ltd., Cambridge, UK) after 8 h of culture.
# (§2) The antibacterial activities of the peptides in Müller-Hinton (MH) broth and modified LYM broth were determined using the standard broth microdilution method as per Clinical and Laboratory Standards Institute (CLSI) guidelines. The LYM broth was prepared with specific components and adjusted to different conditions, including varying concentrations of NaCl and MgCl2, and different pH levels. To prepare the LYM broth, 5.4 mM KCl, 5.6 mM Na2HPO4, 0.5 mM MgSO4, and 1.0 mM sodium citrate were added. Additionally, 0.4 mg of ZnCl2, 2.0 mg of FeCl3·6H2O, 0.1 mg of CuSO4·5H2O, 0.1 mg of MnSO4·H2O, 0.1 mg of Na2B4O7∙10H2O, 700 mg of amino acid mixtures without tryptophan (Takara Bio Inc., San Jose, CA, USA), and 20 mg of L-tryptophan were added per liter of medium. The pH was adjusted to 7.4, and a vitamin mixture (100X, Sigma) and glucose concentration of 2% were added. For different conditions of LYM broth, NaCl concentrations of 300, 200, 150, and 50 mM, MgCl2 concentrations of 2.5, 1.5, and 0.5 mM, and pH levels of 6.5, 5.5, and 4.5 were adjusted. Bacterial strains were incubated in MH broth overnight, regrown, and diluted to a final concentration of 5 × 10^5 CFU/mL. Peptides were added to each well at final concentrations of 50, 25, 12.5, 6.25, 3.13, 1.56, and 0.78 µg/mL, and 99 µL of diluted microbes was loaded into each well of a polypropylene 96-well plate. […] The Morpheus HeatMap software (https://software.broadinstitute.org/morpheus/) was used to display MIC values on a color scale. All experiments were independently repeated three times.
# S. aureus ATCC 33593 = system: S. aureus ATCC 33593
# Procedure: as §1, §2
# [2] = system: Both Gram-positive and -negative bacteria; assay: Geometric mean MIC, therapeutic index and fold changes of MIC, whole panel of strains; type: cell-based; conditions: for GM G−/+ (geometric mean of the MIC values): Both Gram-positive and -negative bacteria, MH broth, MIC >50 µg/mL counted as 100 µg/mL; for Therapeutic Index (TI) G−/+: HC10/GM, both Gram-positive and -negative bacteria; for weakening of antibacterial efficacy (MIC): LYM broth
# Procedure: (§3) In this study, we aimed to investigate the potential of W5K series peptides for therapeutic use. To evaluate their efficacy for antibacterial therapy, we used the Therapeutic Index (TI) as a measure of their cell selectivity. The TI was calculated as the ratio of the concentration causing 10% hemolysis of human red blood cells (HC10) to the geometric mean minimum inhibitory concentration (GM) of the peptides against both Gram-negative and Gram-positive bacteria. This parameter was used to quantitatively assess the balance between antibacterial potency and cytotoxicity among the W5K derivatives.
# as §2
# Gram-negative bacteria = assay: Geometric mean MIC and therapeutic index, Gram-negative bacteria; type: cell-based; conditions: Gram-negative bacteria; for GM G− (geometric mean of the MIC values): MH broth, MIC >50 µg/mL counted as 100 µg/mL; for Therapeutic Index (TI) G−: HC10/GM
# Procedure: as §3, §2
# Gram-positive bacteria = assay: Geometric mean MIC and therapeutic index, Gram-positive bacteria; type: cell-based; conditions: Gram-positive bacteria; for GM G+ (geometric mean of the MIC values): MH broth, MIC >50 µg/mL counted as 100 µg/mL; for Therapeutic Index (TI) G+: HC10/GM
# Procedure: as §3, §2
# S. aureus ATCC 33592 = system: S. aureus ATCC 33592
# Procedure: as §1
# as §2, with “For different conditions of LYM broth, NaCl concentrations of 300, 200, 150, and 50 mM, MgCl2 concentrations of 2.5, 1.5, and 0.5 mM, and pH levels of 6.5, 5.5, and 4.5 were adjusted.” left out
# [3] = LYM broth, 0 mM NaCl, 16 h, 37 °C
# [4] = LYM broth, 50 mM NaCl, 16 h, 37 °C
# [5] = LYM broth, 100 mM NaCl, 16 h, 37 °C
# [6] = LYM broth, 200 mM (NaCl), 16 h, 37 °C
# [7] = LYM broth, 300 mM (NaCl), 16 h, 37 °C
# [8] = MH broth, 5 × 10^5 CFU/mL, 16 h, 37 °C, repeated three times
substance,measurement,setting,value
Ac-KKKWRKWLKWLAK-NH2 [Peptide W5K12],MIC,[1]; [3],1.56 µg/mL
same,MIC,"[1]; LYM broth, 0.5 mM MgCl2",3.13 µg/mL
same,MIC,"[1]; LYM broth, 1.5 mM MgCl2",3.13 µg/mL
same,MIC,"[1]; LYM broth, 2.5 mM MgCl2",3.13 µg/mL
same,MIC,[1]; [4],3.13 µg/mL
same,MIC,[1]; [5],3.13 µg/mL
same,MIC,[1]; [6],6.25 µg/mL
same,MIC,[1]; [7],12.5 µg/mL
same,MIC,"[1]; LYM broth, pH 4.5",1.56 µg/mL
same,MIC,"[1]; LYM broth, pH 5.5",1.56 µg/mL
same,MIC,"[1]; LYM broth, pH 6.5",1.56 µg/mL
same,MIC,[1]; [8],3.13 µg/mL
same,MIC,S. aureus ATCC 33593; [3],3.13 µg/mL
same,MIC,"S. aureus ATCC 33593; LYM broth, 0.5 mM MgCl2",3.13 µg/mL
same,MIC,"S. aureus ATCC 33593; LYM broth, 1.5 mM MgCl2",3.13 µg/mL
same,MIC,"S. aureus ATCC 33593; LYM broth, 2.5 mM MgCl2",3.13 µg/mL
same,MIC,S. aureus ATCC 33593; [4],3.13 µg/mL
same,MIC,S. aureus ATCC 33593; [5],3.13 µg/mL
same,MIC,S. aureus ATCC 33593; [6],6.25 µg/mL
same,MIC,S. aureus ATCC 33593; [7],12.5 µg/mL
same,MIC,"S. aureus ATCC 33593; LYM broth, pH 4.5",3.13 µg/mL
same,MIC,"S. aureus ATCC 33593; LYM broth, pH 5.5",1.56 µg/mL
same,MIC,"S. aureus ATCC 33593; LYM broth, pH 6.5",1.56 µg/mL
same,MIC,S. aureus ATCC 33593; [8],6.25 µg/mL
same,GM G−/+ (geometric mean of the MIC values),[2],3.4 µg/mL
same,Therapeutic Index (TI) G−/+,[2],12.4
same,weakening of antibacterial efficacy (MIC),[2]; 300 mM NaCl,up to 4 fold
same,weakening of antibacterial efficacy (MIC),[2]; MgCl2 rising above 0.5 mM,up to 2 fold
same,GM G− (geometric mean of the MIC values),Gram-negative bacteria,2.4 µg/mL
same,Therapeutic Index (TI) G−,Gram-negative bacteria,17.6
same,GM G+ (geometric mean of the MIC values),Gram-positive bacteria,4.7 µg/mL
same,Therapeutic Index (TI) G+,Gram-positive bacteria,8.8
same,MIC,S. aureus ATCC 33592; [3],3.13 µg/mL
same,MIC,"S. aureus ATCC 33592; LYM broth, 0.5 mM MgCl2",3.13 µg/mL
same,MIC,"S. aureus ATCC 33592; LYM broth, 1.5 mM MgCl2",3.13 µg/mL
same,MIC,"S. aureus ATCC 33592; LYM broth, 2.5 mM MgCl2",3.13 µg/mL
same,MIC,S. aureus ATCC 33592; [4],3.13 µg/mL
same,MIC,S. aureus ATCC 33592; [5],3.13 µg/mL
same,MIC,S. aureus ATCC 33592; [6],6.25 µg/mL
same,MIC,S. aureus ATCC 33592; [7],12.5 µg/mL
same,MIC,"S. aureus ATCC 33592; LYM broth, pH 4.5",3.13 µg/mL
same,MIC,"S. aureus ATCC 33592; LYM broth, pH 5.5",3.13 µg/mL
same,MIC,"S. aureus ATCC 33592; LYM broth, pH 6.5",1.56 µg/mL
same,MIC,S. aureus ATCC 33592; [8],6.25 µg/mL
Ac-KKWRKWLKWLAKK-NH2 [W5K/A9W],MIC,[1]; [3],1.56 µg/mL
same,MIC,"[1]; LYM broth, 0.5 mM MgCl2",3.13 µg/mL
same,MIC,"[1]; LYM broth, 1.5 mM MgCl2",3.13 µg/mL
same,MIC,"[1]; LYM broth, 2.5 mM MgCl2",6.25 µg/mL
same,MIC,[1]; [4],1.56 µg/mL
same,MIC,[1]; [5],3.13 µg/mL
same,MIC,[1]; [6],3.13 µg/mL
same,MIC,[1]; [7],12.5 µg/mL
same,MIC,"[1]; LYM broth, pH 4.5",1.56 µg/mL
same,MIC,"[1]; LYM broth, pH 5.5",1.56 µg/mL
same,MIC,"[1]; LYM broth, pH 6.5",1.56 µg/mL
same,MIC,[1]; [8],3.13 µg/mL
same,MIC,S. aureus ATCC 33593; [3],3.13 µg/mL
same,MIC,"S. aureus ATCC 33593; LYM broth, 0.5 mM MgCl2",3.13 µg/mL
same,MIC,"S. aureus ATCC 33593; LYM broth, 1.5 mM MgCl2",3.13 µg/mL
same,MIC,"S. aureus ATCC 33593; LYM broth, 2.5 mM MgCl2",3.13 µg/mL
same,MIC,S. aureus ATCC 33593; [4],3.13 µg/mL
same,MIC,S. aureus ATCC 33593; [5],3.13 µg/mL
same,MIC,S. aureus ATCC 33593; [6],6.25 µg/mL
same,MIC,S. aureus ATCC 33593; [7],12.5 µg/mL
same,MIC,"S. aureus ATCC 33593; LYM broth, pH 4.5",3.13 µg/mL
same,MIC,"S. aureus ATCC 33593; LYM broth, pH 5.5",3.13 µg/mL
same,MIC,"S. aureus ATCC 33593; LYM broth, pH 6.5",3.13 µg/mL
same,MIC,S. aureus ATCC 33593; [8],12.5 µg/mL
same,GM G−/+ (geometric mean of the MIC values),[2],4.1 µg/mL
same,Therapeutic Index (TI) G−/+,[2],7.3
same,weakening of antibacterial efficacy (MIC),[2]; 300 mM NaCl,up to 4 fold
same,weakening of antibacterial efficacy (MIC),[2]; MgCl2 rising above 0.5 mM,up to 2 fold
same,GM G− (geometric mean of the MIC values),Gram-negative bacteria,2.1 µg/mL
same,Therapeutic Index (TI) G−,Gram-negative bacteria,14.5
same,GM G+ (geometric mean of the MIC values),Gram-positive bacteria,8.2 µg/mL
same,Therapeutic Index (TI) G+,Gram-positive bacteria,3.6
same,MIC,S. aureus ATCC 33592; [3],3.13 µg/mL
same,MIC,"S. aureus ATCC 33592; LYM broth, 0.5 mM MgCl2",3.13 µg/mL
same,MIC,"S. aureus ATCC 33592; LYM broth, 1.5 mM MgCl2",3.13 µg/mL
same,MIC,"S. aureus ATCC 33592; LYM broth, 2.5 mM MgCl2",3.13 µg/mL
same,MIC,S. aureus ATCC 33592; [4],3.13 µg/mL
same,MIC,S. aureus ATCC 33592; [5],3.13 µg/mL
same,MIC,S. aureus ATCC 33592; [6],6.25 µg/mL
same,MIC,S. aureus ATCC 33592; [7],12.5 µg/mL
same,MIC,"S. aureus ATCC 33592; LYM broth, pH 4.5",3.13 µg/mL
same,MIC,"S. aureus ATCC 33592; LYM broth, pH 5.5",3.13 µg/mL
same,MIC,"S. aureus ATCC 33592; LYM broth, pH 6.5",3.13 µg/mL
same,MIC,S. aureus ATCC 33592; [8],12.5 µg/mL
